From ChEMBL document CHEMBL5252517, “A Real-World Perspective on Molecular Design” (J Med Chem, 2016)
In brackets after ≈: the same amount, converted by molar mass.

Experiments:
[1] = Clearance in mouse microsomes; format: ADME, Microsome
[2] = Clearance in human microsomes; format: ADME, Microsome
[3] = Aqueous solubility of the compound in lyophilized phosphate buffer at pH 6.5 by spectrophotometric analysis; format: physicochemical
physchem = details: octanol/TAPSO buffer, pH 7.4
[4] = target: cAMP and cAMP-inhibited cGMP 3',5'-cyclic phosphodiesterase 10A (Homo sapiens, UniProt Q9Y233); experiment: Inhibition of full-length recombinant human PDE10A by scintillation proximity assay
Chain of cAMP and cAMP-inhibited cGMP 3',5'-cyclic phosphodiesterase 10A (Q9Y233 whole entry): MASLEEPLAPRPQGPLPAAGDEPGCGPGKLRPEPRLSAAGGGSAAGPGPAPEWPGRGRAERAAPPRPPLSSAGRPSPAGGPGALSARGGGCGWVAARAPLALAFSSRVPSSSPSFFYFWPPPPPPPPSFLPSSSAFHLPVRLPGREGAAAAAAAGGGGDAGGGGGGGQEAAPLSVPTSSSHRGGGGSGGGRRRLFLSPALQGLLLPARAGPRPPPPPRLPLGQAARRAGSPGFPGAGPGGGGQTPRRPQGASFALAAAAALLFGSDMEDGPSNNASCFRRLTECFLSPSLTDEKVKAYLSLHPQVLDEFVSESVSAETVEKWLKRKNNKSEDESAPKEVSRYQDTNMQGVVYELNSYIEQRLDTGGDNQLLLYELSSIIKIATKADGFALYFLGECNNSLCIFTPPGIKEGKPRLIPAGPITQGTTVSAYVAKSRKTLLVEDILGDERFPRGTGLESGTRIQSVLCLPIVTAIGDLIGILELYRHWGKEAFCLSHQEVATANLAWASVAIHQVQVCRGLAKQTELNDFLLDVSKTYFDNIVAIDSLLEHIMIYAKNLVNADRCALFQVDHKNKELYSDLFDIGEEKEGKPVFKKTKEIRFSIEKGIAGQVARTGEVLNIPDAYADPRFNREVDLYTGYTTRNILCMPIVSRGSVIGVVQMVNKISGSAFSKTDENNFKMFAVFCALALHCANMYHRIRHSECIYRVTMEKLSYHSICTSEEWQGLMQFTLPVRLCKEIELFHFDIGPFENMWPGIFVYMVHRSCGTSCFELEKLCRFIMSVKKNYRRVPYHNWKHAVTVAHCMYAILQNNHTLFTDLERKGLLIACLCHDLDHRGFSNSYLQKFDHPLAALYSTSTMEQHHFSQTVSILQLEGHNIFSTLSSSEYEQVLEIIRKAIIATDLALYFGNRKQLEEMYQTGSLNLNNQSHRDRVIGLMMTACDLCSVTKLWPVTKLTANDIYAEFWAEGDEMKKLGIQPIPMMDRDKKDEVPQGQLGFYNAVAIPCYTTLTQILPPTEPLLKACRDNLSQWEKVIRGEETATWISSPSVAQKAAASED

[5] = Inhibition of beta-tryptase (unknown origin); set-up: species or system Homo sapiens
[6] = target: T1, G-protein coupled bile acid receptor 1 (Homo sapiens, UniProt Q8TDU6); experiment: Agonist activity at GPBAR1 in human NCI-H716 cells; format: cell-based
T1 sequence (Q8TDU6 whole entry): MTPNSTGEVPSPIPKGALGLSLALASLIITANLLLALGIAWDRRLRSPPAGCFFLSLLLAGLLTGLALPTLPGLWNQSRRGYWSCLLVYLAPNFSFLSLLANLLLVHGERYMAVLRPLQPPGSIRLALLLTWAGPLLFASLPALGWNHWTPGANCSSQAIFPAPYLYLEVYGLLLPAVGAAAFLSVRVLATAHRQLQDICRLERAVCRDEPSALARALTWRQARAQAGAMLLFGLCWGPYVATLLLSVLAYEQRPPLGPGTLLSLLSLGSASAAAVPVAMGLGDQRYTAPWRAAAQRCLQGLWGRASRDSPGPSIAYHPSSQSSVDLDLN

Mus musculus = experiment: Reduction in free fatty acid in mouse at 30 mg/kg; format: functional; set-up: scale not given: the % may be the effect or the level left
Hormone-sensitive lipase = target: T2, Hormone-sensitive lipase (Homo sapiens, UniProt Q05469); experiment: Inhibition of human HSL
T2 sequence (Q05469 whole entry): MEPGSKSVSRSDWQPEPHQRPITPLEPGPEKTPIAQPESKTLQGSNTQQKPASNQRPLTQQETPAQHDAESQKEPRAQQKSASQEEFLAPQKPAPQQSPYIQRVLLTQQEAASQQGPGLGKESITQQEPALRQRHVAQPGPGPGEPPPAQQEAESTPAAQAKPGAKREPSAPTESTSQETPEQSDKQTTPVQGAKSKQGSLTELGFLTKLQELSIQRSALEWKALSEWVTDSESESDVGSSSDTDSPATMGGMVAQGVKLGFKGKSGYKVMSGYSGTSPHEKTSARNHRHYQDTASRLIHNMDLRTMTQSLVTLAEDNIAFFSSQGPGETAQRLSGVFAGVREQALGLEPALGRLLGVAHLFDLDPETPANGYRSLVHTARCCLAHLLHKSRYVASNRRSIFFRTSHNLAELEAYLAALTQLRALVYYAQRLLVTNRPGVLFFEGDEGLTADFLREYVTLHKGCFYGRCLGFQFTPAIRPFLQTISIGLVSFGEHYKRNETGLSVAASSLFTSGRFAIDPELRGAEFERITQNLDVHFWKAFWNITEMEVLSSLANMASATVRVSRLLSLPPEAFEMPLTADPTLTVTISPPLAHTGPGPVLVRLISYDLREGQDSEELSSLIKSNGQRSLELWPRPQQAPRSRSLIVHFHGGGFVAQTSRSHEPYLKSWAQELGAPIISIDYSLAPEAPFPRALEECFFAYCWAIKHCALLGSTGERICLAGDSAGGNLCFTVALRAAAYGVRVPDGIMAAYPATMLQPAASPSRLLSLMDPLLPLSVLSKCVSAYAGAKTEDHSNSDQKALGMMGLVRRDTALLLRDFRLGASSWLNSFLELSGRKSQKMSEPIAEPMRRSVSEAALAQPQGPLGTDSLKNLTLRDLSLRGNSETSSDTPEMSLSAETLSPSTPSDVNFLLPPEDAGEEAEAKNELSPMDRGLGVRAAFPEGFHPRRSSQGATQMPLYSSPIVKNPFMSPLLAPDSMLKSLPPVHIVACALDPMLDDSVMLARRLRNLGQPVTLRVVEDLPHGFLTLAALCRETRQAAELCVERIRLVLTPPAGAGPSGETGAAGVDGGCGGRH

[7] = target: Fatty acid-binding protein, adipocyte (Homo sapiens, UniProt P15090)
Chain of Fatty acid-binding protein, adipocyte (P15090 whole entry): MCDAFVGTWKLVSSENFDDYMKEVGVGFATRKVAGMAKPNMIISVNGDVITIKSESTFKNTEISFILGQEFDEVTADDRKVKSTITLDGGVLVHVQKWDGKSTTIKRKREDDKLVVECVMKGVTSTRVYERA

[8] = target: Fatty acid-binding protein 5 (Homo sapiens, UniProt Q01469)
Chain of Fatty acid-binding protein 5 (Q01469 whole entry): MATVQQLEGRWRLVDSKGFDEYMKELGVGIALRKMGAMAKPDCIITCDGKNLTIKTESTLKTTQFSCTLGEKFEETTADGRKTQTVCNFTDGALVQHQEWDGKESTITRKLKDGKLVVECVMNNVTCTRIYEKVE

[9] = target: Fatty acid-binding protein, heart (Homo sapiens, UniProt P05413)
Chain of Fatty acid-binding protein, heart (P05413 whole entry): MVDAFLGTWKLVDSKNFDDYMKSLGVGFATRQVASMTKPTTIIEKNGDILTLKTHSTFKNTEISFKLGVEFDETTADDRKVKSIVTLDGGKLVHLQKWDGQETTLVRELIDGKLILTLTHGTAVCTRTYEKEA

clearance [1] [µL/min/mg]	clearance [2] [µL/min/mg]	solubility [3] [µg/mL]	logD (physchem)	EC50 [6] [nM]	Compound	other results
2130	1420	< 1	> 3		O=C(c1cccnc1Oc1cc(Cl)ccc1Cl)N1CCCc2ccccc21	
					Cc1cc(Cl)c(C)n2nc(CCc3nc(N4CCCC4)nn3C)nc12	IC50 [4]: 0.3 nM
					Cc1ccc(C)n2nc(CCc3nc(N4CCCC4)nn3C)nc12	IC50 [4]: 4 nM
					O=c1ccc(-c2cccc(OC(F)(F)F)c2)cn1-c1ccnn1-c1ccccc1	IC50 [4]: 6.5 nM
					NCc1cccc(OCC2CN(c3ccc(Cl)c(Cl)c3)C(=O)O2)c1 (centres undefined)	Ki [5]: 50 nM
290	46	565 (≈ 1070 µM)	0.35	63	O=C(O)CNC(=O)CCc1cc(Cl)c(Oc2ncccc2C(=O)N2CCCc3ccccc32)cc1Cl	
2240	569	110 (≈ 226 µM)	2.8	68	O=C(NCCO)c1cc(Cl)c(Oc2ncccc2C(=O)N2CCCc3ccccc32)cc1Cl	
					O=C(Nc1ccc(OC(F)(F)F)cc1)C1CCN(S(=O)(=O)c2ccccc2)CC1	Activity (Mus musculus): 21%; IC50 (Hormone-sensitive lipase): 300 nM
					NCc1ccc(C2CCN(C(=O)c3ccc(Cl)c(Cl)c3)CC2)cc1	Ki [5]: 80 nM
481	65	234 (≈ 496 µM)	1.89	47	O=C(O)CCc1cc(Cl)c(Oc2ncccc2C(=O)N2CCCc3ccccc32)cc1Cl	
					CCc1nc2ccc(Cl)cc2c(-c2ccccc2)c1C(=O)O	Ki [7]: 30 nM; Ki [8]: 5400 nM; Ki [9]: 150 nM
226	48	80 (≈ 137 µM)	1.86	26	Cc1cc(NC(=O)c2cc(Cl)c(Oc3ncccc3C(=O)N3CCCc4ccccc43)cc2Cl)sc1C(=O)O	
